Where two headings read alike, the source gives them in different places.
Assays:
[1] = target: PIM (PIM-1, PIM-2, and/or PIM-3); assay: PIM-1, PIM-2 and PIM-3 inhibition, biochemical chemiluminescence assays (Kinase Glo, IC50 determination); settings: Table 1 activity class; PIM refers to PIM-1, PIM-2, and/or PIM-3; read-out: PIM IC50 (Activity B)
CK2 = CK2 (Homo sapiens, UniProt P68400); assay: CK2 inhibition, biochemical chemiluminescence holoenzyme assay (Kinase Glo, IC50 determination); settings: Table 1 activity class; symbol given only if active; read-out: CK2 IC50 (Activity C)
Chain of CK2 (P68400 whole entry): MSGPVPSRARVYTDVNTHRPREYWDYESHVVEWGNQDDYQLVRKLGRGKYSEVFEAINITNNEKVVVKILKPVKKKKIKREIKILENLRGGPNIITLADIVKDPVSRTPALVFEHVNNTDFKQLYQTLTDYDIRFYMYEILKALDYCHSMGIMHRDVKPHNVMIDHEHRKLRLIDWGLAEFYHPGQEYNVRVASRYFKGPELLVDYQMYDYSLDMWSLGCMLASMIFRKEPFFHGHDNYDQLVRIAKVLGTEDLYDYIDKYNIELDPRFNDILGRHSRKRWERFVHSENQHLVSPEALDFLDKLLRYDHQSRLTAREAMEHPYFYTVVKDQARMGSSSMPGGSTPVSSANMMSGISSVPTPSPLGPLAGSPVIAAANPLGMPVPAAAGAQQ
Chain of CK2 (P67870 whole entry partner): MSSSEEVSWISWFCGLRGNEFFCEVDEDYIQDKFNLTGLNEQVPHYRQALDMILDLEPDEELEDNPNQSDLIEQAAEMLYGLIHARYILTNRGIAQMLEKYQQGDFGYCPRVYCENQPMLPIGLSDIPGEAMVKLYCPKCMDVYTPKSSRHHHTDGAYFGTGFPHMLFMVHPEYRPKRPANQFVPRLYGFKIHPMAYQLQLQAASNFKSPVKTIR
In short: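 Holoenzyme CK2 assay; compounds pre-incubated with substrate and enzyme, then reacted 150 min at 24-27° C. Remaining ATP measured as luminescence with Kinase Glo, and IC50 derived from the signal.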

CDC7 = CDC7 (Homo sapiens, UniProt O00311); assay: CDC7 inhibition, biochemical chemiluminescence assay (Kinase Glo, IC50 determination)
Chain of CDC7 (O00311 whole entry): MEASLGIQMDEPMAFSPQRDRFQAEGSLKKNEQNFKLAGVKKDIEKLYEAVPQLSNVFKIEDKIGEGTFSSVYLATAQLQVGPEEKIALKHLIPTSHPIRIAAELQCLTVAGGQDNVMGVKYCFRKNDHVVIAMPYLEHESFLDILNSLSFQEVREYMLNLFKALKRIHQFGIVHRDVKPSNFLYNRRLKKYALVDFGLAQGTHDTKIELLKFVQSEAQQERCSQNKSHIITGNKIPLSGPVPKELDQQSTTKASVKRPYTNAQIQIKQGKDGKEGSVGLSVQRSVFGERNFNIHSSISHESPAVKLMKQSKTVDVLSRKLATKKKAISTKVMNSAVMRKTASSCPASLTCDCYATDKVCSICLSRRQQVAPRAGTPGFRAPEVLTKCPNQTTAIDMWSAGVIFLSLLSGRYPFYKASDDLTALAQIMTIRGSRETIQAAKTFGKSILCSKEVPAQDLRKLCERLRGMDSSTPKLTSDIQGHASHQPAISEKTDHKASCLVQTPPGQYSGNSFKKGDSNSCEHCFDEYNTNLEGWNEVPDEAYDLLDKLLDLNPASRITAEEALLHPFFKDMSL
Chain of CDC7 (Q9UBU7 whole entry partner): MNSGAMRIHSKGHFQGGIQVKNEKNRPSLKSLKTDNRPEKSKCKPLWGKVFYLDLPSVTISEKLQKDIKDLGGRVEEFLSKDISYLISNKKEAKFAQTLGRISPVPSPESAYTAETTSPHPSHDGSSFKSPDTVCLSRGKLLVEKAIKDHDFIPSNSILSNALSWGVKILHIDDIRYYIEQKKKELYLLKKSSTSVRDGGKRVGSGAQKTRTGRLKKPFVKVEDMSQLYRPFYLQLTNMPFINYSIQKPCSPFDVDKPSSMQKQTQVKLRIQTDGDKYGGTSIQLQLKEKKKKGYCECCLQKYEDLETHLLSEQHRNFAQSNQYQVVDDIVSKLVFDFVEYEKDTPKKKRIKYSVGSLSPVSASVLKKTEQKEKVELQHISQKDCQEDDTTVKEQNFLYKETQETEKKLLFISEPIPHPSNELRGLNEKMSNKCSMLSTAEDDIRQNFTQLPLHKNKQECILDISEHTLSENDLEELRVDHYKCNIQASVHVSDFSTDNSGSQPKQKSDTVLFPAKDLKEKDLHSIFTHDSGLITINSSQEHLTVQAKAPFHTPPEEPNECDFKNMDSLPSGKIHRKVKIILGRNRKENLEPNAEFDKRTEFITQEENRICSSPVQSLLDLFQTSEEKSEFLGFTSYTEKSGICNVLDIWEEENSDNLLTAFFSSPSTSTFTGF
In short: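 CDC7 enzyme preincubated with compound 10 min at ambient temperature, then ATP mix in Tris Base added; reaction 90 min at 24-27 °C. Remaining ATP quantified by Kinase Glo luminescence to give IC50.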

[2] = Table 1 activity class, symbol given only if active, read-out: CDC7 IC50 (Activity A)
[3] = compounds in Table 1, read-out: CDC7 IC50 value

COc1cccc2oc3c(=O)[nH]c(CN4CC[C@H](O)C4)nc3c12 [Compound 448, 2-{[(3S)-3-hydroxypyrrolidin-1-yl]methyl}-9-(methyloxy)[1]benzofuro[3,2-d]pyrimidin-4(3H)-one] gave an IC50 [1] of less than 10 µM, an IC50 (CK2) of less than 10 µM and an IC50 (CDC7; [2]) of less than 10 µM.

For CC(C)(CN1CCOCC1)NCc1nc2c(oc3ccc(Br)cc32)c(=O)[nH]1 [Compound 130, 8-bromo-2-{[(1,1-dimethyl-2-morpholin-4-ylethyl)amino]methyl}[1]benzofuro[3,2-d]pyrimidin-4(3H)-one], the IC50 [1] was less than 10 µM, the IC50 (CK2) was less than 10 µM and the IC50 (CDC7; [2]) was less than 10 µM.

For O=c1[nH]c(CNc2cccnc2)nc2c1oc1ccc(Br)cc12 [Compound 13, 8-bromo-2-[(pyridin-3-ylamino)methyl][1]benzofuro[3,2-d]pyrimidin-4(3H)-one], the IC50 [1] was less than 10 µM, the IC50 (CK2) was less than 10 µM and the IC50 (CDC7; [2]) was less than 10 µM.

For Cc1ccccc1-c1nc2c(oc3ccc(Br)cc32)c(=O)[nH]1 [Compound 60, 8-bromo-2-(2-methylphenyl)[1]benzofuro[3,2-d]pyrimidin-4(3H)-one], the IC50 [1] was less than 10 µM, the IC50 (CK2) was less than 10 µM and the IC50 (CDC7; [2]) was less than 10 µM.

O=c1[nH]c([C@@H]2C[C@@H](F)CN2)nc2c1oc1ccc(Cl)cc12 [Compound 526, 8-chloro-2-[(2S,4R)-4-fluoropyrrolidin-2-yl][1]benzofuro[3,2-d]pyrimidin-4(3H)-one] was tested, and the IC50 [1] was less than 10 µM, the IC50 (CK2) was less than 10 µM and the IC50 (CDC7; [2]) was less than 10 µM. The IC50 (CDC7; [3]) was less than 0.1 µM.

Cc1ccc2oc3c(=O)[nH]c(CN4CC[C@H](O)C4)nc3c2c1N [Compound 440, 9-amino-2-{[(3S)-3-hydroxypyrrolidin-1-yl]methyl}-8-methyl[1]benzofuro[3,2-d]pyrimidin-4(3H)-one] gave an IC50 [1] of less than 10 µM, an IC50 (CK2) of less than 10 µM and an IC50 (CDC7; [2]) of less than 10 µM.

With O=c1[nH]c(CNCCc2c[nH]cn2)nc2c1oc1ccc(Br)cc12 [Compound 259, 8-bromo-2-({[2-(1H-imidazol-4-yl)ethyl]amino}methyl)[1]benzofuro[3,2-d]pyrimidin-4(3H)-one] the IC50 [1] was less than 10 µM, the IC50 (CK2) was less than 10 µM and the IC50 (CDC7; [2]) was less than 10 µM. For the same compound, the IC50 (CDC7; [3]) was less than 0.1 µM.

Compound CCC1(O)CCN(Cc2nc3c(oc4ccc(Br)cc43)c(=O)[nH]2)C1 (stereo not drawn) [Compound 407, 8-bromo-2-[(3-ethyl-3-hydroxypyrrolidin-1-yl)methyl][1]benzofuro[3,2-d]pyrimidin-4(3H)-one] has an IC50 [1] of less than 10 µM, an IC50 (CK2) of less than 10 µM and an IC50 (CDC7; [2]) of less than 10 µM. It also gave an IC50 (CDC7; [3]) of less than 0.1 µM.

O=C(Nc1ccc(-c2nc3c(oc4ccc(Br)cc43)c(=O)[nH]2)c(Cl)c1)c1ccco1 [Compound 321, N-[4-(8-bromo-4-oxo-3,4-dihydro[1]benzofuro[3,2-d]pyrimidin-2-yl)-3-chlorophenyl]furan-2-carboxamide] was tested, and the IC50 [1] was less than 10 µM, the IC50 (CK2) was less than 10 µM and the IC50 (CDC7; [2]) was less than 10 µM.

O=c1[nH]c(-c2ccncc2Br)nc2c1oc1ccc(Br)cc12 [Compound 43, 8-bromo-2-(3-bromopyridin-4-yl)[1]benzofuro[3,2-d]pyrimidin-4(3H)-one] gave an IC50 [1] of less than 10 µM, an IC50 (CK2) of less than 10 µM and an IC50 (CDC7; [2]) of less than 10 µM.

C#Cc1ccc2oc3c(=O)[nH]c(CN4CC[C@H](O)C4)nc3c2c1 [Compound 458, 8-ethynyl-2-{[(3S)-3-hydroxypyrrolidin-1-yl]methyl}[1]benzofuro[3,2-d]pyrimidin-4(3H)-one] gave an IC50 [1] of less than 10 µM, an IC50 (CK2) of less than 10 µM and an IC50 (CDC7; [2]) of less than 10 µM. For the same compound, the IC50 (CDC7; [3]) was less than 0.1 µM.

O=c1[nH]c(CNCCc2ccncc2)nc2c1oc1ccc(Br)cc12 [Compound 166, 8-bromo-2-{[(2-pyridin-4-ylethyl)amino]methyl}[1]benzofuro[3,2-d]pyrimidin-4(3H)-one] showed an IC50 [1] of less than 10 µM, an IC50 (CK2) of less than 10 µM and an IC50 (CDC7; [2]) of less than 10 µM. The IC50 (CDC7; [3]) was less than 0.1 µM.

In the case of O=c1[nH]c([C@@H]2C[C@H](F)CN2)nc2c1oc1ccc(Br)cc12 [Compound 513, 8-bromo-2-[(2S,4S)-4-fluoropyrrolidin-2-yl][1]benzofuro[3,2-d]pyrimidin-4(3H)-one], the IC50 [1] is reported as less than 10 µM, the IC50 (CK2) is reported as less than 10 µM and the IC50 (CDC7; [2]) is reported as less than 10 µM. For the same compound, the IC50 (CDC7; [3]) was less than 0.1 µM.

Compound Cc1cnc(C(=O)Nc2ccc(-c3nc4c(oc5ccc(Br)cc54)c(=O)[nH]3)c(Cl)c2)cn1 [Compound 312, N-[4-(8-bromo-4-oxo-3,4-dihydro[1]benzofuro[3,2-d]pyrimidin-2-yl)-3-chlorophenyl]-5-methylpyrazine-2-carboxamide] has an IC50 [1] of less than 10 µM, an IC50 (CK2) of less than 10 µM and an IC50 (CDC7; [2]) of less than 10 µM.

In the case of NCc1nc2c(oc3ccc(Br)cc32)c(=O)[nH]1 [Compound 195, 2-(aminomethyl)-8-bromo[1]benzofuro[3,2-d]pyrimidin-4(3H)-one], the IC50 [1] is reported as less than 10 µM, the IC50 (CK2) is reported as less than 10 µM and the IC50 (CDC7; [2]) is reported as less than 10 µM.

In the case of O=c1[nH]c([C@@H]2CC3CCCCC3N2)nc2c1oc1ccc(Cl)cc12 (stereo partly drawn) [Compound 529, 8-chloro-2-[(2S)-octahydro-1H-indol-2-yl][1]benzofuro[3,2-d]pyrimidin-4(3H)-one], the IC50 [1] is reported as less than 10 µM, the IC50 (CK2) is reported as less than 10 µM and the IC50 (CDC7; CDC7 IC50 (Activity A), Table 1 activity class, symbol given only if active) is reported as less than 10 µM. The IC50 (CDC7; CDC7 IC50 value, compounds in Table 1) was less than 0.1 µM.

With O=C(Nc1ccc(-c2nc3c(oc4ccc(Br)cc43)c(=O)[nH]2)c(Cl)c1)c1ccno1 [Compound 324, N-[4-(8-bromo-4-oxo-3,4-dihydro[1]benzofuro[3,2-d]pyrimidin-2-yl)-3-chlorophenyl]isoxazole-5-carboxamide] the IC50 [1] was less than 10 µM, the IC50 (CK2) was less than 10 µM and the IC50 (CDC7; [2]) was less than 10 µM.

Work on CS(=O)(=O)c1ccc(-c2nc3c(oc4ccc(Br)cc43)c(=O)[nH]2)c(Cl)c1 [Compound 128, 8-bromo-2-[2-chloro-4-(methylsulfonyl)phenyl][1]benzofuro[3,2-d]pyrimidin-4(3H)-one] yielded an IC50 [1] of less than 10 µM, an IC50 (CK2) of less than 10 µM and an IC50 (CDC7; [2]) of less than 10 µM. For the same compound, the IC50 (CDC7; [3]) was less than 0.1 µM.

CN(C)Cc1nc2c(oc3ccc(Br)cc32)c(=O)[nH]1 [Compound 517, 8-bromo-2-[(dimethylamino)methyl][1]benzofuro[3,2-d]pyrimidin-4(3H)-one] showed an IC50 [1] of less than 10 µM, an IC50 (CK2) of less than 10 µM and an IC50 (CDC7; [2]) of less than 10 µM. The IC50 (CDC7; [3]) was less than 0.1 µM.

Work on Nc1n[nH]c2ccc(C(=O)Nc3ccc(-c4nc5c(oc6ccc(Br)cc65)c(=O)[nH]4)c(Cl)c3)cc12 [Compound 393, ′3-amino-N-[4-(8-bromo-4-oxo-3,4-dihydro[1]benzofuro[3,2-d]pyrimidin-2-yl)-3-chlorophenyl]-1H-indazole-5-carboxamide] yielded an IC50 [1] of less than 10 µM, an IC50 (CK2) of less than 10 µM and an IC50 (CDC7; [2]) of less than 10 µM.

Work on O=C1CC[C@@H](c2nc3c(oc4ccc(Br)cc43)c(=O)[nH]2)N1 [Compound 523, 8-bromo-2-[(2S)-5-oxopyrrolidin-2-yl][1]benzofuro[3,2-d]pyrimidin-4(3H)-one] yielded an IC50 [1] of less than 10 µM, an IC50 (CK2) of less than 10 µM and an IC50 (CDC7; [2]) of less than 10 µM. The IC50 (CDC7; [3]) was less than 0.1 µM.

Compound CC1CCN(Cc2nc3c(oc4ccc(Br)cc43)c(=O)[nH]2)CC1 [Compound 201, 8-bromo-2-[(4-methylpiperidin-1-yl)methyl][1]benzofuro[3,2-d]pyrimidin-4(3H)-one] has an IC50 [1] of less than 10 µM, an IC50 (CK2) of less than 10 µM and an IC50 (CDC7; [2]) of less than 10 µM. For the same compound, the IC50 (CDC7; [3]) was less than 0.1 µM.

COCCNCc1nc2c(oc3ccc(Br)cc32)c(=O)[nH]1 [Compound 277, 8-bromo-2-({[2-(methyloxy)ethyl]amino}methyl)[1]benzofuro[3,2-d]pyrimidin-4(3H)-one] was tested, and the IC50 [1] was less than 10 µM, the IC50 (CK2) was less than 10 µM and the IC50 (CDC7; [2]) was less than 10 µM. For the same compound, the IC50 (CDC7; [3]) was less than 0.1 µM.
